Source: PubChem BioAssay (NCI)
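Method: 48-hour compound exposure of cells in 96-well plates, five concentrations, linear interpolation of endpoints. The concentration for full growth arrest is given as TGI.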

How the values were obtained:
Test in all cases: NCI tumour cell line growth inhibition, 48 h
RPMI-8226 leukemia = tested on: RPMI-8226 leukemia
SK-OV-3 ovarian = tested on: SK-OV-3 ovarian
RXF 393 renal = tested on: RXF 393 renal
UO-31 renal = tested on: UO-31 renal
SNB-19 CNS = tested on: SNB-19 CNS
OVCAR-8 ovarian = tested on: OVCAR-8 ovarian
NCI-H226 lung = tested on: NCI-H226 lung
HT29 colon = tested on: HT29 colon
SK-MEL-2 melanoma = tested on: SK-MEL-2 melanoma
HCT-15 colon = tested on: HCT-15 colon
U251 CNS = tested on: U251 CNS
IGROV1 ovarian = tested on: IGROV1 ovarian
SF-295 CNS = tested on: SF-295 CNS
UACC-62 melanoma = tested on: UACC-62 melanoma
HOP-62 NSCLC = tested on: HOP-62 NSCLC
NCI-H23 lung = tested on: NCI-H23 lung
OVCAR-5 ovarian = tested on: OVCAR-5 ovarian
LOX IMVI melanoma = tested on: LOX IMVI melanoma
SW-620 colon = tested on: SW-620 colon
NCI-H460 lung = tested on: NCI-H460 lung

Row | Structure (SMILES) | TGI (RPMI-8226 leukemia) [µM] | TGI (SK-OV-3 ovarian) [µM] | TGI (RXF 393 renal) [µM] | TGI (UO-31 renal) [µM] | TGI (SNB-19 CNS) [µM] | TGI (OVCAR-8 ovarian) [µM] | TGI (NCI-H226 lung) [µM] | TGI (HT29 colon) [µM] | TGI (SK-MEL-2 melanoma) [µM] | TGI (HCT-15 colon) [µM] | TGI (U251 CNS) [µM] | TGI (IGROV1 ovarian) [µM] | TGI (SF-295 CNS) [µM] | TGI (UACC-62 melanoma) [µM] | TGI (HOP-62 NSCLC) [µM] | TGI (NCI-H23 lung) [µM] | TGI (OVCAR-5 ovarian) [µM] | TGI (LOX IMVI melanoma) [µM] | TGI (SW-620 colon) [µM] | TGI (NCI-H460 lung) [µM]
1 | C/C(=N/NC(=O)c1ccncc1)C(F)(F)F | > 100 | > 100 | > 100 | > 100 | > 100 | > 100 | > 100 | > 100 | > 100 | > 100 | > 100 | > 100 | > 100 | > 100 | > 100 | > 100 | > 100 |  |  | 
2 | CC(=O)CCC#Cc1ccccc1C(=O)C(C)=[N+]=[N-] | 68.3 | > 100 | 97.5 | > 100 | > 100 | > 100 | > 100 | > 100 | > 100 | > 100 | > 100 | > 100 | > 100 | 38.7 | > 100 | > 100 | > 100 | > 100 | > 100 | > 100
3 | COc1ccc(-c2cc(N3CCN(c4ccc(Cl)cc4)CC3)c(C#N)c(=O)o2)cc1 | 87.9 |  | 17.3 | 30.5 | 23.8 | 19.1 | 7.57 | > 100 | 45.3 | > 100 | 58.2 | 42.4 | 16.4 |  |  | 88.1 | > 100 | > 100 | > 100 | 28.9
4 | COC(=O)/C=C1\SC2(OC1=Nc1ccccc1)C1CC3CC(C1)CC2C3 (configuration not stated) | > 100 | > 100 | > 100 | > 100 | > 100 | > 100 | > 100 | > 100 | > 100 | > 100 | > 100 | > 100 | > 100 | > 100 | > 100 |  | > 100 | > 100 | > 100 | > 100
5 | O=C(O)C(Cc1cc(I)c(O)c(I)c1)C1CCCCC1 (configuration not stated) |  |  | > 100 | > 100 | > 100 | > 100 | > 100 | 98.3 |  | > 100 | 54.6 | > 100 | > 100 | > 100 | > 100 | 65.5 | > 100 | > 100 | > 100 | 46
6 | CC(C)(C)[Si](C)(C)OCC1OC(n2cnc3c(N)ncnc32)C2OC(=S)OC12 (configuration not stated) | > 100 | 97 | > 100 | 78.3 | > 100 | > 100 | > 100 | > 100 | 74.7 | > 100 | 68.2 | > 100 | > 100 | 77.8 | > 100 | 73.3 | 86.6 | > 100 | > 100 | > 100
7 | O=C1c2cc(Br)ccc2-c2ccc3c4ccc5c6c(ccc(c7ccc1c2c73)c64)C(=O)c1cc(Br)ccc1-5 | > 100 | > 100 | > 100 | > 100 | > 100 | > 100 | > 100 | > 100 | > 100 | > 100 | > 100 | > 100 |  | > 100 | > 100 | > 100 | > 100 | > 100 | > 100 | > 100
8 | CCOC(=O)CC1=N/C(=N/C(=N)N[N+](=O)[O-])SC1 |  | > 100 | > 100 | > 100 | > 100 | > 100 | > 100 | > 100 | > 100 | > 100 | > 100 | > 100 | > 100 | > 100 | > 100 | > 100 | > 100 | > 100 | > 100 | > 100
9 | NCCCCCC(CCN)SCC1OC(n2cnc3c(N)ncnc32)C(O)C1O (configuration not stated) | 1140 | > 1500 | > 1500 | > 1320 | > 1500 | > 1500 | > 1500 | > 1500 | > 1500 | > 1500 | > 1500 | > 1500 | > 1500 | > 1500 | > 1500 | > 1500 | > 1500 | > 1500 | > 1500 | > 1500
10 | COc1cccc2c1C(=O)c1c(O)c3c(c(O)c1C2=O)C[C@@](O)(C(=O)CO)CC3OC1CC(N(C)CCOCC(OC(C)=O)OC(C)=O)C(O)C(C)O1 (some centres not stated) | > 0.01 | > 0.01 | > 0.01 | > 0.01 | > 0.01 | > 0.01 | > 0.01 | > 0.01 | > 0.01 |  | > 0.01 | > 0.01 | > 0.01 | > 0.01 | > 0.01 | > 0.01 | > 0.01 | > 0.01 | > 0.01 | > 0.01
11 | Fc1ccc(Nc2nc(Cl)c3[nH]cnc3n2)cc1Cl | > 100 | > 100 |  | 33.5 | > 100 | > 100 | > 100 | > 100 | > 100 | > 100 | > 100 | > 100 | > 100 | > 100 | > 100 | > 100 | > 100 | > 100 | > 100 | > 100
12 | Nc1ccccc1N | > 100 | > 100 | > 100 | > 100 | > 100 | > 100 |  | > 100 | > 100 | > 100 | > 100 | > 100 | > 100 | > 100 | > 100 | > 100 | > 100 | > 100 | > 100 | > 100
13 | CN1C2CCC1/C(=C/c1cccc3c1OCO3)C(=O)/C2=C\c1cccc2c1OCO2 | > 100 | > 100 | 68 | > 100 |  | > 100 | > 100 | > 100 | > 100 | > 100 | 63.4 | > 100 | 84.6 | 91.4 | 41.2 | > 100 | > 100 | > 100 | > 100 | > 100
14 | NC(Cc1ccc(CP(=O)(O)O)cc1)C(=O)O (configuration not stated) | > 100 | > 100 | > 100 | > 100 | > 100 | > 100 |  | > 100 | > 100 | > 100 | > 100 | > 100 | > 100 | > 100 |  | > 100 | > 100 | > 100 | > 100 | > 100
